Test results reported in ChEMBL document CHEMBL1146869 (Bioorg Med Chem Lett, 2006).
Converted amounts (≈) assume the structure as drawn.

Legend:
[1] = Aqueous solubility of the compound; format: physicochemical; conditions: water
Rattus norvegicus [2] = test: Anti-inflammatory activity against carrageenan-induced paw edema in Sprague-Dawley rat at 3 mg/kg, iv after 5 hrs; format: functional, organism-based; parameters: dose 3 mg/kg, route intravenous
Rattus norvegicus [3] = test: Gastric toxicity in rat at 20 mg/kg, iv; format: organism-based; parameters: dose 20 mg/kg, route intravenous; conditions: in vivo
Rattus norvegicus [4] = test: Anti-inflammatory activity against carrageenan-induced paw edema in Sprague-Dawley rat at 3 mg/kg, iv after 3 hrs; format: functional, organism-based; parameters: dose 3 mg/kg, route intravenous
[5] = biological target: T1, Prostaglandin G/H synthase 2 (Homo sapiens, UniProt P35354)
T1 sequence (P35354 whole entry): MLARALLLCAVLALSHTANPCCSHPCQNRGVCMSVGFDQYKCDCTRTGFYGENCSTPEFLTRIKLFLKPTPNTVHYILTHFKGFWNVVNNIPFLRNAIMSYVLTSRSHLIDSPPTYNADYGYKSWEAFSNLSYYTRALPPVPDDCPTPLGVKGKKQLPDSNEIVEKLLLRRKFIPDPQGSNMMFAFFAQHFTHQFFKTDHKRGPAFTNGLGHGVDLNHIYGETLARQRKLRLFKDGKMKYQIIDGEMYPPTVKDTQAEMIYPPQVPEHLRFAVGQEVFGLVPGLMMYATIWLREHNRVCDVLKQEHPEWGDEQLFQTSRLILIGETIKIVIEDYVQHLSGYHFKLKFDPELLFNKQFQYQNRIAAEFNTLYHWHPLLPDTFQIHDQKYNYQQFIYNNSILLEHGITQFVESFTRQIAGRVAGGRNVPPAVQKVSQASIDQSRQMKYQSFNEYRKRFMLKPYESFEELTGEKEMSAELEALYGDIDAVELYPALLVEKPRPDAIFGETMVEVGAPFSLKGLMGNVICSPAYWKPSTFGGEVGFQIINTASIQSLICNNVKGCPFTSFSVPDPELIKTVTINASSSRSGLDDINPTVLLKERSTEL

[6] = biological target: T2, Prostaglandin G/H synthase 1 (Ovis aries, UniProt P05979); test: Inhibition of COX1; parameters: species or system Homo sapiens
T2 sequence (P05979 whole entry): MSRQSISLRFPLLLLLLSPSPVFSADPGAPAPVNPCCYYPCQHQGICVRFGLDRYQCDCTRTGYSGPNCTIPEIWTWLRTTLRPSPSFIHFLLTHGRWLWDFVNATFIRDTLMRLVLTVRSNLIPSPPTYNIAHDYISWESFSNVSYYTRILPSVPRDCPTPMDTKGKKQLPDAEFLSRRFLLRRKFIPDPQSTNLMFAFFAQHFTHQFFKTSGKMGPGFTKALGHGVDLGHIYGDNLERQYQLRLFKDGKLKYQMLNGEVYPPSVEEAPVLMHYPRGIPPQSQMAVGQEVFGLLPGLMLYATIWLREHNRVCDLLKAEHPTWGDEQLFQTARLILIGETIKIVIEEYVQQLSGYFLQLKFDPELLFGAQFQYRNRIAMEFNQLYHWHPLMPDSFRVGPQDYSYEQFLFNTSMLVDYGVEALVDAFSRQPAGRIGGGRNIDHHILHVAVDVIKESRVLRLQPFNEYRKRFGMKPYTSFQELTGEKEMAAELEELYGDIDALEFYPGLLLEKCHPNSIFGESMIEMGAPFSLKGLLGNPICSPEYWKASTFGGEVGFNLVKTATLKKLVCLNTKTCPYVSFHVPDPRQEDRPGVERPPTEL

Rattus norvegicus [7] = test: Gastric toxicity in rat at 40 mg/kg, iv; format: organism-based; parameters: dose 40 mg/kg, route intravenous; conditions: in vivo

Row | Compound | solubility [1] [mg/mL] | inhibition in vivo at 3 mg/kg (Rattus norvegicus [2]) [%] | Activity (Rattus norvegicus [3]) | inhibition in vivo at 3 mg/kg (Rattus norvegicus [4]) [%] | IC50 [5] [nM] | IC50 [6] [nM] | Activity (Rattus norvegicus [7])
1 | O=C1OCC(c2ccc(-c3nn[nH]n3)cc2)=C1c1ccccc1 | 125 (≈ 411 mM) | 28 | Not Active | 34.1 | 1.8 | 3.8 | –
2 | O=C([O-])Cc1ccccc1Nc1c(Cl)cccc1Cl.[Na+] [DICLOFENAC SODIUM] | – | – | 22.8 | – | – | – | 51.5
3 | Cc1ccc(-c2cc(C(F)(F)F)nn2-c2ccc(-c3nnn[nH]3)cc2)cc1 | 100 (≈ 270 mM) | 34.7 | Not Active | 40.2 | 1.9 | 4.1 | –
4 | CCC(=O)[N-]S(=O)(=O)c1ccc(-c2c(-c3ccccc3)noc2C)cc1.[Na+] [PARECOXIB SODIUM] | – | 42 | – | 62.8 | – | – | Not Active
